Results reported in patent publication US20140058103A1, “Inhibitors of PI3K-Delta and Methods of Their Use and Manufacture” (Exelixis, Inc., priority 2010, published 2014).

What follows are molecules tested against PI3K delta (Homo sapiens, UniProt O00329) (assay: Luciferase-coupled chemiluminescence kinase assay (ATP consumption, KinaseGlo)).
Format: biochemical
How it was run: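 ATP consumption measured by KinaseGlo luciferase chemiluminescence after a 2 h reaction at ambient temperature, with ATP at or below the kinase KM. Ten inhibitor concentrations per curve; IC50 from four-parameter nonlinear regression.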

PI3K delta, sequence (O00329 whole entry): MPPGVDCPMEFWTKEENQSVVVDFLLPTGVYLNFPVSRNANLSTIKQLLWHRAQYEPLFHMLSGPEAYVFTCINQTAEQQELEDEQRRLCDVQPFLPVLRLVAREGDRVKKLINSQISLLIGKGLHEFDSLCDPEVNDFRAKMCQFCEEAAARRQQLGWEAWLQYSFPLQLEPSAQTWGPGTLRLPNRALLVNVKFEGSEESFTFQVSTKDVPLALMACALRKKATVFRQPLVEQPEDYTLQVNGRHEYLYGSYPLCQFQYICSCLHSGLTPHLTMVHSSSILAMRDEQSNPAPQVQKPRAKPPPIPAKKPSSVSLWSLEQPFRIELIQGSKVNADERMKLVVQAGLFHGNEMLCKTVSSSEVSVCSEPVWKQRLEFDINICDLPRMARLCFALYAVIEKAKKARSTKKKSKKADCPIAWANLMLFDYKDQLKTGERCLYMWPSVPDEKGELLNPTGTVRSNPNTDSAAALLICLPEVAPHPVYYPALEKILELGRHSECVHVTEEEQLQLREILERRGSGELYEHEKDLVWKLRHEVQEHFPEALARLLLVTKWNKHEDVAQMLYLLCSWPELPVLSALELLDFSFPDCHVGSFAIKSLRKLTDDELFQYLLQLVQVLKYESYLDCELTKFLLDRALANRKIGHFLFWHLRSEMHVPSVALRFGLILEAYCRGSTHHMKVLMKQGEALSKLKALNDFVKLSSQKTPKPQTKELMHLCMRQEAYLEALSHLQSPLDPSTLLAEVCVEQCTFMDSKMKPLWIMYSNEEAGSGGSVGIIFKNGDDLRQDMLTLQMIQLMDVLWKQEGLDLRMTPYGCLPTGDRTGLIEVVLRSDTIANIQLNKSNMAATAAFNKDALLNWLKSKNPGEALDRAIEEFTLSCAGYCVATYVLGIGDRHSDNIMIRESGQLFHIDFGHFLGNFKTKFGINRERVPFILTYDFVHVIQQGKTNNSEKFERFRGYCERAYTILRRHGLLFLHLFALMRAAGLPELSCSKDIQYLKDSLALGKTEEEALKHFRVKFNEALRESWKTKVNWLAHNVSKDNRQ
PI3K delta, sequence (P27986 whole entry partner): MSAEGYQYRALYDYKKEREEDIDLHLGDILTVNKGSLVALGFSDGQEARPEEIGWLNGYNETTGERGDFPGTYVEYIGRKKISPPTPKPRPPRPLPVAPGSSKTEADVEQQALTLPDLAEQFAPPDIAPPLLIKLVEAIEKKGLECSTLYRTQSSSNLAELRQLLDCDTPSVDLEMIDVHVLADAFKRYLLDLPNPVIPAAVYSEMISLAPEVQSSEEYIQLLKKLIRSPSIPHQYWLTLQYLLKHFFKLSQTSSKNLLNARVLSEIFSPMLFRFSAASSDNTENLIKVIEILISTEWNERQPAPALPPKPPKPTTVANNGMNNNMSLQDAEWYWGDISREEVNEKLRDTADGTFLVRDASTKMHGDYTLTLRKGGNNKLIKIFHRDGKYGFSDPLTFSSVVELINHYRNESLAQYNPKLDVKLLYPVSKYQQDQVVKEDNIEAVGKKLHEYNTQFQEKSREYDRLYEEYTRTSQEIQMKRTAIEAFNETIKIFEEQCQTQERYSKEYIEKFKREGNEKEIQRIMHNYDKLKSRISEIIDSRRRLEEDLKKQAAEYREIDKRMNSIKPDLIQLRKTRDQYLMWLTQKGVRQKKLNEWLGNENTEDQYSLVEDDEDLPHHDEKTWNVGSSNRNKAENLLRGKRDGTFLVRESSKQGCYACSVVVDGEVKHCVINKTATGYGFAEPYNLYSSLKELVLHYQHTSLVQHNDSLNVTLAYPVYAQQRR

| SMILES | IC50 [nM] |
| --- | --- |
| Cn1c(C(=O)NCC2CC2)nc2c(N3CCC(n4c(=O)[nH]c5ccccc54)C3)ncnc21 (stereo not drawn) [Compound 172, N-(cyclopropylmethyl)-9-methyl-6-[3-(2-oxo-2,3-dihydro-1H-benzimidazol-1-yl)pyrrolidin-1-yl]-9H-purine-8-carboxamide] | 500 to 1500 |
| Cn1c(C(=O)NCc2ccc(F)cc2F)nc2c(N3CCC(n4c(=O)[nH]c5ccccc54)CC3)ncnc21 [Compound 66, N-[(2,4-difluorophenyl)methyl]-9-methyl-6-[4-(2-oxo-2,3-dihydro-1H-benzimidazol-1-yl)piperidin-1-yl]-9H-purine-8-carboxamide] | 500 to 1500 |
| Cc1ccccc1CNC(=O)c1nc2c(N3CCC(n4c(=O)[nH]c5ccccc54)CC3)ncnc2n1C [Compound 57, 9-methyl-N-[(2-methylphenyl)methyl]-6-[4-(2-oxo-2,3-dihydro-1H-benzimidazol-1-yl)piperidin-1-yl]-9H-purine-8-carboxamide] | 250 to 500 |
| CC(C)CNC(=O)c1nc2c(N3CCC4(CC3)C(=O)Nc3ccccc34)ncnc2n1C [Compound 34, 9-methyl-N-(2-methylpropyl)-6-(2-oxo-1,2-dihydro-1′H-spiro[indole-3,4′-piperidin]-1′-yl)-9H-purine-8-carboxamide] | < 50 |
| CCn1cc(-c2nc3c(N4CCC5(CC4)C(=O)Nc4ccccc45)ncnc3n2CC)cn1 [Compound 250, 1′-[9-ethyl-8-(1-ethyl-1H-pyrazol-4-yl)-9H-purin-6-yl]spiro[indole-3,4′-piperidin]-2(1H)-one] | < 50 |
| Cn1c(C(=O)NCC2CC2)nc2c(N3CC(n4c(=O)[nH]c5ccccc54)C3)ncnc21 [Compound 137, N-(cyclopropylmethyl)-9-methyl-6-[3-(2-oxo-2,3-dihydro-1H-benzimidazol-1-yl)azetidin-1-yl]-9H-purine-8-carboxamide] | 50 to 250 |
| CCn1c(-c2ccc(C(F)(F)F)nc2)nc2c(N3CCC(n4c(=O)[nH]c5ccccc54)CC3)ncnc21 [Compound 314, 1-(1-{9-ethyl-8-[6-(trifluoromethyl)pyridin-3-yl]-9H-purin-6-yl}piperidin-4-yl)-1,3-dihydro-2H-benzimidazol-2-one] | < 50 |
| Cn1cc(-c2nc3c(N4CCN(S(=O)(=O)c5cccc(C#N)c5)CC4)ncnc3n2C)cn1 [Compound 382, 3-({4-[9-methyl-8-(1-methyl-1H-pyrazol-4-yl)-9H-purin-6-yl]piperazin-1-yl)sulfonyl)benzonitrile] | 250 to 500 |
| Cc1nnc(-c2nc3c(N4CCC(n5c(=O)[nH]c6ccccc65)CC4)ncnc3n2C)n1C [Compound 332, 1-{1-[8-(4,5-dimethyl-4H-1,2,4-triazol-3-yl)-9-methyl-9H-purin-6-yl]piperidin-4-yl}-1,3-dihydro-2H-benzimidazol-2-one] | 50 to 250 |
| Cc1nc(-c2ccccc2)n(OCC2CCN(c3ncnc4c3nc(-c3cnn(C)c3)n4C)CC2)c1C [Compound 2, 6-(4-(((4,5-Dimethyl-2-phenyl-1H-imidazol-1-yl)oxy)methyl)piperidin-1-yl)-9-methyl-8-(1-methyl-M-pyrazol-4-yl)-9H-purine] | 500 to 1500 |
| CCn1ncc(-c2nc3c(N4CCC(n5c(=O)[nH]c6ccccc65)CC4)ncnc3n2C)c1C [Compound 281, 1-{1-[8-(1-ethyl-5-methyl-1H-pyrazol-4-yl)-9-methyl-9H-purin-6-yl]piperidin-4-yl}-1,3-dihydro-2H-benzimidazol-2-one] | < 50 |
| Cn1c(-c2ccc(N)nc2)nc2c(N3CCC(n4c(=O)[nH]c5ncccc54)CC3)ncnc21 [Compound 343, 1-{1-[8-(6-aminopyridin-3-yl)-9-methyl-9H-purin-6-yl]piperidin-4-yl}-1,3-dihydro-2H-imidazo[4,5-b]pyridin-2-one] | < 50 |
| CC(C)NC(=O)c1nc2c(N3CCC(n4c(=O)[nH]c5ccccc54)CC3)ncnc2n1C [Compound 54, 9-methyl-N-(1-methylethyl)-6-[4-(2-oxo-2,3-dihydro-1H-benzimidazol-1-yl)piperidin-1-yl]-9H-purine-8-carboxamide] | 50 to 250 |
| Cn1c(C(=O)NCC2CC2)nc2c(N3CCC(N4C(=O)Cc5ccccc54)CC3)ncnc21 [Compound 117, N-(cyclopropylmethyl)-9-methyl-6-[4-(2-oxo-2,3-dihydro-1H-indol-1-yl)piperidin-1-yl]-9H-purine-8-carboxamide] | 50 to 250 |
| CCn1c(-c2ccnnc2)nc2c(N3CCC(n4c(=O)[nH]c5ccccc54)CC3)ncnc21 [Compound 312, 1-[1-(9-ethyl-8-pyridazin-4-yl-9H-purin-6-yl)piperidin-4-yl]-1,3-dihydro-2H-benzimidazol-2-one] | < 50 |
| Cn1c(C(=O)NCC2CC2)nc2c(N3CCC(n4c(=O)[nH]c5cc(Cl)ccc54)CC3)ncnc21 [Compound 228, 6-[4-(5-chloro-2-oxo-2,3-dihydro-1H-benzimidazol-1-yl)piperidin-1-yl]-N-(cyclopropylmethyl)-9-methyl-9H-purine-8-carboxamide] | 500 to 1500 |
| CCc1nnc(-c2nc3c(N4CCC5(CC4)C(=O)Nc4ccccc45)ncnc3n2CC)o1 [Compound 236, 1′-[9-ethyl-8-(5-ethyl-1,3,4-oxadiazol-2-yl)-9H-purin-6-yl]spiro[indole-3,4′-piperidin]-2(1H)-one] | < 50 |
| CCn1c(C(=O)N[C@H]2CC[C@H](O)CC2)nc2c(N3CCC4(CC3)C(=O)Nc3ccccc34)ncnc21 [Compound 159, 9-ethyl-N-(trans-4-hydroxycyclohexyl)-6-(2-oxo-1,2-dihydro-1′H-spiro[indole-3,4′-piperidin]-1′-yl)-9H-purine-8-carboxamide] | < 50 |
| Cn1c(-c2ccco2)nc2c(N3CCC(n4c(=O)[nH]c5ccccc54)CC3)ncnc21 [Compound 116, 1-[1-(8-furan-2-yl-9-methyl-9H-purin-6-yl)piperidin-4-yl]-1,3-dihydro-2H-benzimidazol-2-one] | 250 to 500 |
| CCn1c(C(=O)NCC2CCC2)nc2c(N3CCC(n4c(=O)[nH]c5ccccc54)CC3)ncnc21 [Compound 185, N-(cyclobutylmethyl)-9-ethyl-6-[4-(2-oxo-2,3-dihydro-1H-benzimidazol-1-yl)piperidin-1-yl]-9H-purine-8-carboxamide] | < 50 |
| CCn1c(C(=O)N2CC(F)(F)C2)nc2c(N3CCC(n4c(=O)[nH]c5ccccc54)CC3)ncnc21 [Compound 189, 1-(1-{8[(3,3-difluoroazetidin-1-yl)carbonyl]-9-ethyl-9H-purin-6-yl}piperidin-4-yl)-1,3-dihydro-2H-benzimidazol-2-one] | < 50 |
| Cn1c(-c2cncnc2)nc2c(N3CCC4(CC3)C(=O)Nc3ccccc34)ncnc21 [Compound 293, 1′-(9-Methyl-8-pyrimidin-5-yl-9H-purin-6-yl)spiro[indole-3,4′-piperidin]-2(1H)-one] | < 50 |
| Cn1c(C(=O)NCC2CC2)nc2c(N3CC(n4c(=O)[nH]c5cc(C(F)(F)F)ccc54)C3)ncnc21 [Compound 145, N-(cyclopropylmethyl)-9-methyl-6-{3-[2-oxo-5-(trifluoromethyl)-2,3-dihydro-1H-benzimidazol-1-yl]azetidin-1-yl}-9H-purine-8-carboxamide] | 250 to 500 |
| CCn1c(-c2cnc(N)nc2)nc2c(N3CCC(n4c(=O)[nH]c5ccccc54)CC3)ncnc21 [Compound 304, 1-{1-[8-(2-aminopyrimidin-5-yl)-9-ethyl-9H-purin-6-yl]piperidin-4-yl)-1,3-dihydro-2H-benzimidazol-2-one] | < 50 |
